The assay concerns the target T1, Human EphA2 (Homo sapiens, UniProt P29317).
T1 construct: purchased Sino Biological 13926-H08HD
In words: Binding capacity test to EphA2 protein (SPR, Biacore 8K). The protocol: To detect the affinity of the compound to be tested to the target protein EphA2 using the SPR method.
• Biacore 8K (GE Healthcare). • 96-well Plate (Cat #650101, greiner bio-one) • CM5 chip (Cat #BR-1005-30, GE Healthcare) • Amine Coupling Kit (Cat #BR-1000-50, GE Healthcare) EDC NHS 1 M ethanolamine. • 10 mM sodium acetate pH 4.5 (Cat #BR-1003-50, GE Healthcare) • DMSO (Cat #D4540, Sigma) • P20 (Cat #BR-1000-54, GE Healthcare). • PBS (Cat #BR-1006-72, GE Healthcare). • EphA2 (Cat #13926-H08HD, Sino Biological)
In this experiment, the amino coupling method was used. The target protein EphA2 was directly immobilized on the CM5 chip using Biacore 8K. The compound to be tested as an analyte was then diluted to a required concentration gradient with a buffer (10 mM PBS, pH 7.4, 137 mM NaCl, 2.7 mM KCl, 5% DMSO, and 0.05% P20) for multi-cycle kinetic detection, in which each cycle is formed by 180 seconds of sample injection and 180 seconds of dissociation, and then the next cycle was performed, to obtain kinetic analysis data on the affinity of the target protein EphA2 to the compound to be tested. The final data were subjected to Kinetics fitting analysis based on a 1:1 model using Biacore Insight Evaluation Software (V 2.0.15.12933).
1) Preparation of the buffer: 10 mM PBS, pH 7.4, 137 mM NaCl, 2.7 mM KCl, 5% DMSO, and 0.05% P20.
2) Activation of the CM5 chip: The CM5 chip was activated with 400 mM EDC and 100 mM NHS at a flow rate of 10 μL/min for 420 seconds.
3) Coupling of the target protein: The target protein was diluted to 10 μg/mL with 10 mM sodium acetate (pH 4.5) and coupled at a flow rate of 10 μL/min for 284 s. The 1 #, 2 #, and 3 #channels on the chip were used in the experiment, and the coupling results were 1639.9RU, 1747.8RU, and 1702.2RU, respectively.
4) Blocking of the CM5 chip: The CM5 chip was blocked with 1 M ethanolamine at a flow rate of 10 μL/min for 420 seconds.
5) Analyte concentration: The compound to be tested was diluted with the buffer. The compound to be tested was diluted from 100 nM to 0.78 nM in a 2-fold gradient.
6) Sample injection analysis: Each concentration of the working solution of the compound to be tested corresponded to one cycle, with a flow rate of 30 μL/min for binding for 180 seconds and dissociating for 180 seconds. The last cycle was a 5% DMSO solvent correction cycle. 7) All results were subjected to kinetics fitting analysis based on a 1:1 model.
The experimental data of five effective concentrations of the compounds of the present invention were selected for Kinetics fitting analysis based on a 1:1 model using Biacore Insight Evaluation Software (V 2.0.15.12933).

Structures are written as SMILES. Structures can show the parent of a compound that is named as a salt. Starred links: 1 amine or outer side, 2 acyl side, 3 side chain; linkers in the order of their positions; H or OH if unused. Positions of bridges follow the written chain, without caps; N, C: chain ends. Non-standard residues stand in square brackets, D forms with d. Residues, ends and D or L forms follow the SMILES beside them. Chains are numbered I, II in the order given. *: point of attachment. TATA = O=C(CC[*:1])N1CN(C(=O)CC[*:2])CN(C(=O)CC[*:3])C1; Dolaproine = CO[C@@H]([C@@H]1CCCN1)[C@@H](C)C(=O)O; Dil = CC[C@H](C)[C@H](NC)[C@@H](CC(=O)O)OC; X2 = O=C(CCCC(=O)[*:2])NCCC(=O)[*:1]; PABC = O=C(OCc1ccc(N[*:1])cc1)[*:2]; X1 = C[C@@H](N*)[C@@H](O)c1ccccc1; Hyp = O=C(O)[C@@H]1C[C@@H](O)CN1; hArg = N=C(N)NCCCC[C@H](N)C(=O)O; Cit = NC(=O)NCCC[C@H](N)C(=O)O; NMeV = CN[C@H](C(=O)O)C(C)C; hCys = N[C@@H](CCS)C(=O)O; Sar = CNCC(=O)O

T1 sequence (P29317 24-534 limits assumed): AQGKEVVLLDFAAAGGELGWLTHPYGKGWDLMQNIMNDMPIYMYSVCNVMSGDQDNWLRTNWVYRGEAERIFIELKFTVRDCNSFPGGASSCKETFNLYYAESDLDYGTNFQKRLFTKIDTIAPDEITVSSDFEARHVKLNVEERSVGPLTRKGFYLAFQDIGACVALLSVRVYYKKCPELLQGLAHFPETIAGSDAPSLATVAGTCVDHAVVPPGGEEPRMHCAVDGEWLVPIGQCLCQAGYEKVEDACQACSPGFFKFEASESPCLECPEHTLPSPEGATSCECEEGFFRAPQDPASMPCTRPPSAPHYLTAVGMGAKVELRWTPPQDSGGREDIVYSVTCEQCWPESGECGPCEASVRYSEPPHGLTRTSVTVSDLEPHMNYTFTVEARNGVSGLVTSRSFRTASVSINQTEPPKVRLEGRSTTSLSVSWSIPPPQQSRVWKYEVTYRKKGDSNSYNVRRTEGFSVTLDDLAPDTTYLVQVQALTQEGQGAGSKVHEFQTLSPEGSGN

As a reminder, the Kd is the concentration at which binding is half-saturated. Turning to `CC[C@H](C)[C@@H]([C@@H](CC(=O)N1CCC[C@H]1[C@H](OC)[C@@H](C)C(=O)N[C@H](C)[C@@H](O)c1ccccc1)OC)N(C)C(=O)[C@@H](NC(=O)[C@H](C(C)C)N(C)C(=O)OCc1ccc(NC(=O)[C@H](CCCNC(N)=O)NC(=O)[C@@H](NC(=O)CCCC(=O)NCCC(=O)N(C)CC(=O)N(C)CC(=O)N(C)CC(=O)N(C)CC(=O)N(C)CC(=O)N(C)CC(=O)N(C)CC(=O)N(C)CC(=O)N(C)CC(=O)N(C)CC(=O)N[C@H]2CCCCNC(=O)C[C@@H](C(=O)N[C@H]3CCSCCC(=O)N4CN5CN(C4)C(=O)CCSC[C@H](NC(=O)[C@H](CC(C)C)NC(=O)[C@@H]4CCCN4C(=O)[C@H](CC(N)=O)NC(=O)[C@H](C(C)C)NC(=O)[C@H](CC(C)C)NC(=O)[C@@H]4C[C@@H](O)CN4C3=O)C(=O)N[C@@H](CC(C)C)C(=O)N[C@@H](Cc3c[nH]cn3)C(=O)N3CCC[C@H]3C(=O)N[C@H](CC(=O)O)C(=O)N[C@@H](Cc3c[nH]c4ccccc34)C(=O)N[C@@H](CCCCNC(=N)N)C(=O)N[C@H](C(N)=O)CSCCC5=O)NC(=O)[C@H](CCCCNC(=N)N)NC2=O)C(C)C)cc1)C(C)C` [Acetate salt of PDC_6] (I: [Sar][Sar][Sar][Sar][Sar][Sar][Sar][Sar][Sar][Sar]K[hArg]D[hCys][Hyp]LVNPLCLHP[dD]W[hArg]C-NH2 / II: V[Cit][PABC][NMeV]V[Dil][Dolaproine]-X1; lactam I:11-I:13; linker I:14-I:21-I:28 via TATA; linker I:N-II:N via X2), the Kd came to 5.67 nM. As for `CC[C@H](C)[C@@H]([C@@H](CC(=O)N1CCC[C@H]1[C@H](OC)[C@@H](C)C(=O)N[C@H](C)[C@@H](O)c1ccccc1)OC)N(C)C(=O)[C@@H](NC(=O)[C@H](C(C)C)N(C)C(=O)OCc1ccc(NC(=O)[C@H](CCCNC(N)=O)NC(=O)[C@@H](NC(=O)CCCC(=O)NCCC(=O)N(C)CC(=O)N(C)CC(=O)N(C)CC(=O)N(C)CC(=O)N(C)CC(=O)N(C)CC(=O)N(C)CC(=O)N(C)CC(=O)N(C)CC(=O)N(C)CC(=O)N[C@H]2CCCCNC(=O)C[C@@H](C(=O)N[C@H]3CSCCC(=O)N4CN5CN(C4)C(=O)CCSC[C@H](NC(=O)[C@H](CC(C)C)NC(=O)[C@@H]4CCCN4C(=O)[C@H](CC(N)=O)NC(=O)[C@H](C(C)C)NC(=O)[C@H](CC(C)C)NC(=O)[C@@H]4C[C@@H](O)CN4C3=O)C(=O)N[C@@H](CC(C)C)C(=O)N[C@@H](Cc3c[nH]cn3)C(=O)N3CCC[C@H]3C(=O)N[C@H](CC(=O)O)C(=O)N[C@@H](Cc3c[nH]c4ccccc34)C(=O)N[C@@H](CCCCNC(=N)N)C(=O)N[C@H](C(N)=O)CSCCC5=O)NC(=O)[C@H](CCCCNC(=N)N)NC2=O)C(C)C)cc1)C(C)C` [Acetate salt of PDC_4] (I: [Sar][Sar][Sar][Sar][Sar][Sar][Sar][Sar][Sar][Sar]K[hArg]DC[Hyp]LVNPLCLHP[dD]W[hArg]C-NH2 / II: V[Cit][PABC][NMeV]V[Dil][Dolaproine]-X1; lactam I:11-I:13; linker I:14-I:21-I:28 via TATA; linker I:N-II:N via X2), the Kd stood at 13.3 nM. For `CC[C@H](C)[C@@H]([C@@H](CC(=O)N1CCC[C@H]1[C@H](OC)[C@@H](C)C(=O)N[C@H](C)[C@@H](O)c1ccccc1)OC)N(C)C(=O)[C@@H](NC(=O)[C@H](C(C)C)N(C)C(=O)OCc1ccc(NC(=O)[C@H](CCCNC(N)=O)NC(=O)[C@@H](NC(=O)CCCC(=O)NCCC(=O)N(C)CC(=O)N(C)CC(=O)N(C)CC(=O)N(C)CC(=O)N(C)CC(=O)N(C)CC(=O)N(C)CC(=O)N(C)CC(=O)N(C)CC(=O)N(C)CC(=O)N[C@H]2CCCCNC(=O)C[C@@H](C(=O)N[C@H]3CSCCC(=O)N4CN5CN(C4)C(=O)CCSC[C@H](NC(=O)[C@H](CC(C)C)NC(=O)[C@@H]4CCCN4C(=O)[C@H](CC(N)=O)NC(=O)[C@H](C(C)C)NC(=O)[C@H](CC(C)C)NC(=O)[C@@H]4C[C@@H](O)CN4C3=O)C(=O)N[C@@H](CC(C)C)C(=O)N[C@@H](Cc3c[nH]cn3)C(=O)N3CCC[C@H]3C(=O)N[C@H](CC(=O)O)C(=O)N[C@@H](Cc3c[nH]c4ccccc34)C(=O)N[C@@H](CCCCNC(=N)N)C(=O)N[C@H](C(N)=O)CCSCCC5=O)NC(=O)[C@H](CCCCNC(=N)N)NC2=O)C(C)C)cc1)C(C)C` [Acetate salt of PDC_5] (I: [Sar][Sar][Sar][Sar][Sar][Sar][Sar][Sar][Sar][Sar]K[hArg]DC[Hyp]LVNPLCLHP[dD]W[hArg][hCys]-NH2 / II: V[Cit][PABC][NMeV]V[Dil][Dolaproine]-X1; lactam I:11-I:13; linker I:14-I:21-I:28 via TATA; linker I:N-II:N via X2) the value was 6.73 nM.

(Values after patent US20250121076A1, “POLYPEPTIDE DRUG CONJUGATE HAVING NOVEL STRUCTURE AND APPLICATION THEREOF” (MEDSHINE DISCOVERY INC., priority 2021, published 2025).)
